# Assay results reported in patent US7138361B2, “Herbicidal heterocycles” (E. I. du Pont de Nemours and Company, priority 2000, dated 2006).
# Legend:
# Test in all cases: Test C preemergence
# Type in all cases: in vivo
# Nightshade [1] = conditions: Rate 500 g/ha, visual evaluation after 12 to 14 days
# [2] = test system: Surinam grass (Brachiaria decumbens); conditions: for Plant response rating (0 to 100), Surinam grass: visual evaluation after 12 to 14 days
# Source text: (§1) Seeds of plant species selected from bermudagrass (Cynodon dactylon), Surinam grass (Brachiaria decumbens), cocklebur (Xanthium strumarium), corn (Zea mays), crabgrass (Digitaria sanguinalis), woolly cupgrass (Eriochloa villosa), giant foxtail (Setaria faberii), goosegrass (Eleusine indica), johnsongrass (Sorghum halepense), kochia (Kochia scoparia), lambsquarters (Chenopodium album), morningglory (Ipomoea hederacea), yellow nutsedge (Cyperus esculentus), pigweed (Amaranthus retroflexus), common ragweed (Ambrosia elatior), soybean (Glycine max) and velvetleaf (Abutilon theophrasti) were planted and treated preemergence with test chemicals formulated in a non-phytotoxic solvent mixture which included a surfactant.
# (§2) At the same time, plants selected from these crop and weed species and also winter barley (Hordeum vulgare), blackgrass (Alopecurus myosuroides), canary grass (Phalaris minor), chickweed (Stellaria media), downy brome (Bromus tectorum), green foxtail (Setaria viridis), Italian ryegrass (Lolium multiflorum), wheat (Triticum aestivum), wild oat (Avena fatua) and windgrass (Apera spica-venti) were treated with postemergence applications of some of the test chemicals formulated in the same manner. Plants ranged in height from 2 to 18 cm (1- to 4-leaf stage) for postemergence treatments. Plant species in the flooded paddy test consisted of rice (Oryza saliva), smallflower flatsedge (Cyperus difformis), duck salad (Heteranthera limosa) and barnyardgrass (Echinochloa crus-galli) grown to the 2-leaf stage for testing. Treated plants and controls were maintained in a greenhouse for 12 to 14 days, after which time all species were compared to controls and visually evaluated. Plant response ratings, summarized in Table C, are based on a scale of 0 to 100 where 0 is no effect and 100 is complete control. A dash (-) response means no test result.
# [3] = test system: crabgrass (Digitaria sanguinalis); conditions: for Plant response rating (0 to 100), Crabgrass: visual evaluation after 12 to 14 days
# Source text: as §1, §2
# [4] = test system: bermudagrass (Cynodon dactylon); conditions: for Plant response rating (0 to 100 where 0 is no effect and 100 is complete control), Bermudagrass: visual evaluation after 12 to 14 days
# Source text: as §1, §2
# kochia (Kochia scoparia) = conditions: for Plant response rating (0 to 100), Kochia: visual evaluation after 12 to 14 days
# Source text: as §1, §2
# [5] = test system: woolly cupgrass (Eriochloa villosa); conditions: for Plant response rating (0 to 100), Cupgrass, Woolly: visual evaluation after 12 to 14 days
# Source text: as §1, §2
# [6] = test system: lambsquarters (Chenopodium album); conditions: for Plant response rating, Lambsquarters: scale 0 to 100, 0 no effect, 100 complete control
# Source text: as §1, §2
# [7] = test system: morningglory (Ipomoea hederacea)
# Source text: as §1, §2
# [8] = test system: cocklebur (Xanthium strumarium); conditions: for Plant response rating (0 to 100), Cocklebur: visual evaluation after 12 to 14 days
# Source text: as §1, §2
# [9] = test system: velvetleaf (Abutilon theophrasti); conditions: preemergence
# Source text: as §1, §2
# [10] = test system: yellow nutsedge (Cyperus esculentus)
# Source text: as §1, §2
# corn (Zea mays) = conditions: for Plant response rating (0 to 100), Corn: visual evaluation after 12 to 14 days
# Source text: as §1, §2
# soybean (Glycine max) = conditions: preemergence
# Source text: as §1, §2
# Nightshade [11] = test system: Nightshade
# Source text: as §1, §2
# [12] = test system: common ragweed (Ambrosia elatior); conditions: preemergence
# Source text: as §1, §2
# [13] = test system: giant foxtail (Setaria faberii); conditions: for Plant response rating (0 to 100), Foxtail, Giant: visual evaluation after 12 to 14 days
# Source text: as §1, §2
# [14] = test system: johnsongrass (Sorghum halepense); conditions: for Plant response rating (0 to 100), Johnsongrass: visual evaluation after 12 to 14 days
# Source text: as §1, §2
# [15] = test system: pigweed (Amaranthus retroflexus); conditions: preemergence
# Source text: as §1, §2
# [16] = test system: goosegrass (Eleusine indica); conditions: for Plant response rating (0 to 100), Goosegrass: visual evaluation after 12 to 14 days
# Source text: as §1, §2
# [17] = Rate 62 g/ha, scale 0 to 100, 0 no effect, 100 complete control
# [18] = preemergence, Rate 31 g/ha, scale 0 to 100
# [19] = preemergence, Rate 125 g/ha, scale 0 to 100, 0 no effect, 100 complete control
# [20] = preemergence, Rate 500 g/ha, visual evaluation after 12 to 14 days
# [21] = preemergence, Rate 250 g/ha, scale 0 to 100, 0 no effect, 100 complete control
# [22] = Rate 500 g/ha, visual evaluation after 12 to 14 days
# [23] = Rate 125 g/ha, scale 0 to 100, 0 no effect, 100 complete control
# [24] = Rate 250 g/ha, scale 0 to 100, 0 no effect, 100 complete control
structure (smiles),measurement,setting,value
CC(C)Oc1cccc(N2CCC(n3ccc(C(C)(C)C)n3)C2=O)c1 (stereo not shown) [Compound 70],"Plant response rating (0 to 100), Nightshade",Nightshade [1],70
same,"Plant response rating, Surinam grass",[2]; [17],60
same,"Plant response rating, Surinam grass",[2]; [18],20
same,"Plant response rating (0 to 100), Surinam grass","[2]; preemergence, Rate 250 g/ha",70
same,"Plant response rating (0 to 100), Surinam grass","[2]; preemergence, Rate 500 g/ha",80
same,"Plant response rating, Surinam grass",[2]; [19],70
same,"Plant response rating, Crabgrass",[3]; [17],100
same,"Plant response rating, Crabgrass",[3]; [18],30
same,"Plant response rating (0 to 100), Crabgrass","[3]; preemergence, Rate 250 g/ha",100
same,"Plant response rating (0 to 100), Crabgrass","[3]; preemergence, Rate 500 g/ha",100
same,"Plant response rating, Crabgrass",[3]; [19],100
same,"Plant response rating, Bermudagrass",[4]; [17],100
same,"Plant response rating, Bermudagrass",[4]; [18],80
same,"Plant response rating (0 to 100 where 0 is no effect and 100 is complete control), Bermudagrass","[4]; preemergence, Rate 250 g/ha",100
same,"Plant response rating (0 to 100 where 0 is no effect and 100 is complete control), Bermudagrass","[4]; preemergence, Rate 500 g/ha",100
same,"Plant response rating, Bermudagrass",[4]; [19],100
same,"Plant response rating, Kochia",kochia (Kochia scoparia); [17],80
same,"Plant response rating, Kochia",kochia (Kochia scoparia); [18],0
same,"Plant response rating (0 to 100), Kochia","kochia (Kochia scoparia); preemergence, Rate 250 g/ha",100
same,"Plant response rating (0 to 100), Kochia","kochia (Kochia scoparia); preemergence, Rate 500 g/ha",100
same,"Plant response rating, Kochia",kochia (Kochia scoparia); [19],90
same,"Plant response rating, Cupgrass, Woolly",[5]; [17],70
same,"Plant response rating, Cupgrass, Woolly",[5]; [18],0
same,"Plant response rating (0 to 100), Cupgrass, Woolly","[5]; preemergence, Rate 250 g/ha",100
same,"Plant response rating (0 to 100), Cupgrass, Woolly","[5]; preemergence, Rate 500 g/ha",100
same,"Plant response rating, Cupgrass, Woolly",[5]; [19],100
same,"Plant response rating, Lambsquarters",[6]; Rate 62 g/ha,100
same,"Plant response rating (0 to 100), Lambsquarters",[6]; [20],100
same,"Plant response rating, Lambsquarters","[6]; preemergence, Rate 125 g/ha",100
same,"Plant response rating, Lambsquarters","[6]; preemergence, Rate 250 g/ha",100
same,"Plant response rating, Morningglory",[7]; [17],20
same,"Plant response rating, Morningglory",[7]; [18],0
same,"Plant response rating (0 to 100), Morningglory",[7]; [20],40
same,"Plant response rating, Morningglory",[7]; [19],0
same,"Plant response rating, Morningglory",[7]; [21],0
same,"Plant response rating, Cocklebur",[8]; [17],0
same,"Plant response rating, Cocklebur",[8]; [18],0
same,"Plant response rating (0 to 100), Cocklebur","[8]; preemergence, Rate 250 g/ha",0
same,"Plant response rating (0 to 100), Cocklebur","[8]; preemergence, Rate 500 g/ha",20
same,"Plant response rating, Cocklebur",[8]; [19],0
same,"Plant response rating, Velvetleaf","[9]; Rate 31 g/ha, scale 0 to 100",0
same,"Plant response rating (0 to 100), Velvetleaf",[9]; [22],10
same,"Plant response rating, Velvetleaf",[9]; [23],0
same,"Plant response rating, Velvetleaf",[9]; [24],0
same,"Plant response rating, Nutsedge",[10]; [17],0
same,"Plant response rating, Nutsedge",[10]; [18],0
same,"Plant response rating (0 to 100), Nutsedge",[10]; [20],0
same,"Plant response rating, Nutsedge",[10]; [19],0
same,"Plant response rating, Nutsedge",[10]; [21],0
same,"Plant response rating, Corn",corn (Zea mays); [17],0
same,"Plant response rating, Corn",corn (Zea mays); [18],0
same,"Plant response rating (0 to 100), Corn","corn (Zea mays); preemergence, Rate 250 g/ha",0
same,"Plant response rating (0 to 100), Corn","corn (Zea mays); preemergence, Rate 500 g/ha",20
same,"Plant response rating, Corn",corn (Zea mays); [19],0
same,"Plant response rating, Soybean","soybean (Glycine max); Rate 31 g/ha, scale 0 to 100",0
same,"Plant response rating (0 to 100), Soybean",soybean (Glycine max); [22],20
same,"Plant response rating, Soybean",soybean (Glycine max); [23],10
same,"Plant response rating, Soybean",soybean (Glycine max); [24],20
same,"Plant response rating, Nightshade","Nightshade [11]; Rate 31 g/ha, scale 0 to 100",20
same,"Plant response rating, Nightshade",Nightshade [11]; [17],30
same,"Plant response rating, Nightshade",Nightshade [11]; [23],50
same,"Plant response rating, Nightshade",Nightshade [11]; [24],70
same,"Plant response rating, Ragweed, Common","[12]; Rate 31 g/ha, scale 0 to 100",0
same,"Plant response rating (0 to 100), Ragweed, Common",[12]; [22],100
same,"Plant response rating, Ragweed, Common",[12]; [23],60
same,"Plant response rating, Ragweed, Common",[12]; [24],80
same,"Plant response rating, Foxtail, Giant",[13]; [17],100
same,"Plant response rating, Foxtail, Giant",[13]; [18],0
same,"Plant response rating (0 to 100), Foxtail, Giant","[13]; preemergence, Rate 250 g/ha",100
same,"Plant response rating (0 to 100), Foxtail, Giant","[13]; preemergence, Rate 500 g/ha",100
same,"Plant response rating, Foxtail, Giant",[13]; [19],100
same,"Plant response rating, Johnsongrass",[14]; [17],0
same,"Plant response rating, Johnsongrass",[14]; [18],0
same,"Plant response rating (0 to 100), Johnsongrass","[14]; preemergence, Rate 250 g/ha",50
same,"Plant response rating (0 to 100), Johnsongrass","[14]; preemergence, Rate 500 g/ha",70
same,"Plant response rating, Johnsongrass",[14]; [19],10
same,"Plant response rating, Pigweed","[15]; Rate 31 g/ha, scale 0 to 100",0
same,"Plant response rating (0 to 100), Pigweed",[15]; [22],100
same,"Plant response rating, Pigweed",[15]; [23],20
same,"Plant response rating, Pigweed",[15]; [24],0
same,"Plant response rating, Goosegrass",[16]; [17],90
same,"Plant response rating, Goosegrass",[16]; [18],30
same,"Plant response rating (0 to 100), Goosegrass","[16]; preemergence, Rate 250 g/ha",100
same,"Plant response rating (0 to 100), Goosegrass","[16]; preemergence, Rate 500 g/ha",100
same,"Plant response rating, Goosegrass",[16]; [19],100
